{
  "source": "patent US4316892A",
  "about": "“2,6-C-Dimethyltyrosine^1 -D-amino acid^2 -ε-amino caproic and γ aminobutyric acid^5 derivatives of methionine enkephalin” (G. D. Searle & Co., priority 1980, dated 1982)",
  "origin": "cited, not measured here",
  "key": {"[1]": {"conditions": "injected directly into the brain of the rat; Belluzi et al."}, "[2]": {"system": "brain opiate receptor", "conditions": "partially purified brain opiate receptor; Bradbury et al."}, "[3]": {"conditions": "bioassays for opiate activity"}},
  "data": [
    {"substance": "methionine enkephalin", "values": [
      {"measurement": "analgesic activity", "setting": "[1]", "result": "weak, fleeting analgesic activity"},
      {"measurement": "binding to brain opiate receptor sites", "setting": "[2]", "result": "binds stereospecifically"},
      {"measurement": "opiate activity", "setting": "[3]", "result": "highly active"}
    ]}
  ]
}
